Paper PMC9542156, “Multivalent γ‐PGA‐Exendin‐4 Conjugates to Target Pancreatic β‐Cells” (Chembiochem, 2022)

Assays:
[1] = system: GLP‐1R of Beta‐TC‐6 cells; experiment: Affinity test (cell-based competitive flow cytometric receptor binding assay); settings: 10 nM fluorescein-labelled Ex-4, 0.5 h, 310 K, compared to Ex4-PEG-MA
Protocol: The binding ability of γ‐PGA‐Ex‐4 compounds to GLP‐1R expressed on β‐cells surface was examined in a competitive flow cytometric assay. This receptor binding assay was developed based on similar, receptor targeting studies, of Ex‐4 targeting[85] and folate targeting.[86] The relative competition capability to the target receptor, compared to Ex4‐PEG‐MA, was evaluated among γ‐PGA‐Ex‐4 conjugates at different degrees of functionalization. The obtained values were normalized with respect to the degree of functionalization of each bioconjugate, so that the comparison is not affected by the different amount of Ex‐4 molecules on each polymeric chain. GLP‐1R positive Beta‐TC‐6 cells were co‐incubated with fluorescein‐labelled Ex‐4 and the different Ex‐4 formulations, γ‐PGA‐Ex‐4‐1, γ‐PGA‐Ex‐4‐2, γ‐PGA‐Ex‐4‐3, and Ex4‐PEG‐MA or Ex‐4 as references. […]
5×10^5 cells were incubated with 10 nм fluorescein‐labelled Ex‐4 (Eurogentec) alone or together with the tested compounds at 310 K in RPMI supplemented with 10 % FBS. After 0.5 h the cells were washed with ice cold PBS and fluorescence of the cells was measured by flow cytometer (BD FACSCalibur). […] The binding ability of γ‐PGA‐Ex‐4 conjugates and peptides to the GLP‐1R positive cells was calculated based on the inhibition of the fluorescent Ex‐4 derived signal. […]

[2] = system: dipeptidyl peptidase‐IV (DPP‐IV); settings: natural ligand GLP-1 rapidly degraded by DPP-IV; cited from earlier work
Excerpt: Type 2 diabetes is an unresolved pathology, related to genetic and environmental factors, which gradually decline the pancreatic islet functionality, finally culminating in a pathological phenomenon defined as hyperglycemia.[1] Pancreatic β‐cells take on a key role in the so‐called glucose homeostasis by secreting insulin and amylin.[2] A wide range of pharmacologic treatments have been developed, but none of them is considered the ultimate solution.[3] The classic target for diabetes 2 therapies is GLP‐1R, that stimulates insulin secretion upon interaction with its natural ligand, gluca ...

Substance	Binding / affinity towards GLP‐1R positive β‐cells (in words) [1]	time to degradation by DPP‐IV [2] [min]
HGEGTFTSDLSKQMEEE‐AVRLFIEWLys(PEG4‐Mal)KNGGPSSGAPPP S‐NH2 [Ex‐4‐PEG‐MA, exendin‐4(Lysine27‐PEG4‐maleimide), purchased from Caslo ApS]	still capable to bind GLP‐1R	–
glucagon‐like peptide 1 [GLP‐1]	–	< 2
